Measurements published in PMC10788912 (Journal of Medicinal Chemistry, 2023).
Read-outs that look alike come from different tables or passages of the source.

Columns and labels:
[1] = system: human cervix adenocarcinoma (HeLa) cells; experiment: Phototoxicity testing, MTT assay, HeLa; type: cell-based
Method: (§1) The cells were treated with tested compounds diluted in Earle’s balanced salt solution (EBSS) for 1 h in the dark to allow the complexes to penetrate the cells. Afterward, the cells were irradiated for 1 h with blue light (LZC-4 photoreactor equipped with 16 lamps LZC-420, λmax = 420 nm) or sham irradiated. EBSS containing an Ir complex was then removed, and cells were incubated in the complete, drug-free Dulbecco’s modified Eagle’s medium (DMEM).
(§2) The metabolic activity of the cells (proportional to number of viable cells) was determined 72 h after irradiation using the standard 3-[4,5-dimethylthiazol-2-yl]-2,5 diphenyl tetrazolium bromide (MTT) assay. […] For comparative purposes (and at the reviewer’s request), the clinically used metallodrug cisplatin was included in the experiment.
Therefore, the photoactivation of Ir2 was tested also using a green (λmax = 545 nm) or red (λmax = 613 nm) light irradiation. For this experiment, samples were irradiated with a visible cool white lamp (LZC-Vis, Luzchem), and the appropriate green or red filter was applied; spectral characteristics can be seen in Figure S58.
The phototoxic potency of Ir complexes 1–4 was determined against human cancer Hela, A375, and HCT116 cell lines. […] The number of cells was determined using a standard MTT or SRB assay. […] The phototoxic index (PI) was calculated as a ratio of IC50 (dark)/IC50 (irradiated).

[2] = system: human colon adenocarcinoma HCT116 cells; experiment: Phototoxicity testing, MTT assay, HCT116; type: cell-based; conditions: MTT 72 h
Method: as §1, §2
(§3) The phototoxic potency of Ir complexes 1–4 was determined against human cancer Hela, A375, and HCT116 cell lines. Cells were seeded on 96-well tissue culture plates at a density of 5 × 10^3 cells/well in 100 μL of complete DMEM medium and cultured overnight in a humidified incubator. […] The number of cells was determined using a standard MTT or SRB assay. […] The phototoxic index (PI) was calculated as a ratio of IC50 (dark)/IC50 (irradiated).

[3] = system: human skin melanoma cells A375; experiment: Phototoxicity testing, MTT assay, A375; type: cell-based; conditions: MTT 72 h
Method: as §1, §2, §3

[4] = system: human lung fibroblast MRC5 cells; experiment: Long-term dark effect on noncancerous cells, MTT, MRC5; type: cell-based; conditions: continuous exposure 48 h
Method: The low toxicity of nonirradiated Ir complexes toward human noncancerous cells was confirmed by the fact that their effect was very low or even undetectable during long-term exposure when the human primary prostate epithelial hTERT EP156T and human lung fibroblast MRC5 cells were exposed to the complexes continuously for 48 h (Table 2).
After the period of incubation, an MTT assay was performed and evaluated.

[5] = system: caspase-3 in HeLa cells; experiment: Caspase-3/7 activity assay; type: cell-based, human; conditions: equitoxic concentrations, 1 h dark, 1 h irradiation 420 nm, 2 h recovery
Method: Figure 7 and Figure S59 show the morphological alteration observed 2 h after the HeLa cells were treated with Ir complexes 1–4 at their equitoxic concentrations (IC50,72h) and irradiated. […] The whole cells were swollen and rounded (Figure 7B–E). A significant cytoplasm blebbing was evident in the early stages of the process (Figure 7F). The bubbles around the cells were completely clean inside (Figure 7F), distinguishing them from the budding process typical of apoptosis.
The activation of caspase-3 was detected using CellEvent Caspase-3/7 Green - Active Caspase-3/7 Assay Kit (Thermo Fisher Scientific). Briefly, HeLa cells were seeded at a 6-well plate at 3 × 10^5 cells/well density and treated and irradiated as described above (1 h preincubation in the dark, 1 h irradiation at 420 nm). After 2 h of recovery in compound-free media, cells were stained with the CellEventCaspase 3/7 Green Detection Reagent according to the manufacturer’s protocol, and the fluorescence signal was analyzed by flow cytometry.

With N.N.[Cl][Pt][Cl] [cisPt, cisplatin] the IC50 ([1]; 1 h dark, then blue light 1 h, λmax = 420 nm, 58 ± 2 W m–2, MTT 72 h after irradiation, read-out: IC50 HeLa irrad) was 27 ± 3 µM, the IC50 ([1]; sham irradiated, MTT 72 h, read-out: IC50 HeLa sham irrad) was 23 ± 4 µM and the IC50 ([2]; blue light 1 h, λmax = 420 nm, 58 ± 2 W m–2, read-out: IC50 HCT116 irrad) was 27 ± 7 µM. It also gave an IC50 ([2]; sham irradiated, read-out: IC50 HCT116 sham irrad) of 19 ± 4 µM, an IC50 ([3]; blue light 1 h, λmax = 420 nm, 58 ± 2 W m–2, read-out: IC50 A375 irrad) of 15 ± 2 µM and an IC50 ([3]; sham irradiated, read-out: IC50 A375 sham irrad) of 14 ± 1 µM. The IC50 [4] was 6 ± 0.7 µM.
For CN[C@@H]1C[C@H]2O[C@@](C)([C@@H]1OC)n1c3ccccc3c3c4c(c5c6ccccc6n2c5c31)C(=O)NC4 [staurosporine], the caspase-3 activity [5] was “significantly increased signal”.
